Experimental findings from a melting point compilation (Tetko et al.; mined from patent text by program, amines drawn as free bases though some values may be those of a salt) are described below.

For `O=C1CCC(c2ccc(F)cc2)c2ccccc2N1` (stereo not given), the melting point (in general, the temperature, or range, at which the solid turns liquid) fell in the range of 209 to 212 °C.

In turn, `CCOC(=O)c1c(C(F)(F)F)nc(C(F)F)c(C(=O)O)c1N` displayed a melting point of 142 to 151 °C.

`CC(C)(C)OC(=O)CN1CCN(CC(=O)OC(C)(C)C)C1=O` displayed a melting point of 100 to 102 °C.

`CCCCc1nc(-n2cccc2)c(C(=O)OCC)[nH]1` had a melting point of 74 to 77 °C.

`COC(=O)C1CN(C)CCC1c1ccc(F)cc1` (stereo not given) came in with a melting point of 88 to 89 °C.

The compound `Cc1cn(C)c2c1N(C(=O)C(C)N1CCCC1)c1ccccc1NC2=O` (stereo not given) gave a melting point of 213 to 215 °C.

Consider `CCCN(CCC)CC1CCN(CCNC(=O)N2c3ccccc3C(=O)Nc3cccnc32)C1` (stereo not given), for which the melting point was in the range of 134 to 138 °C.

The compound `N#Cc1c[nH]c2ncnc(N3CCCCC3)c12` yielded a melting point of 209 to 211 °C.

`CCCOc1ccc(S(=O)(=O)N2CCN(CCOC(=O)c3ccccc3)CC2)cc1-c1nc2c(CCC)cn(CC)c2c(=O)[nH]1` yielded a melting point of 78 to 79 °C.

`COc1cc2c(Nc3ccc(Cl)cc3F)ncnc2cc1OCCN1CCS(=O)(=O)CC1` gave a melting point of 246 to 249 °C.

Compound `CCCCC(=O)Nc1cccc2c1C(=O)N(C1CCC(=O)NC1=O)C2=O` (stereo not given) came in with a melting point of 178 to 179 °C.

With `CCCCc1nc2c(N)nc3c(c2n1CCCCN)CCCC3`, the melting point fell in the range of 63 to 67 °C.

For `CCOCn1c(C(F)(F)F)nc2cc(Cl)c(Cl)cc21`, the melting point lay within 89 to 92 °C.

For the compound `O=C(C(=O)c1ccc([N+](=O)[O-])cc1)c1ccc([N+](=O)[O-])cc1`, the melting point was 211 to 212 °C.

For `O=[N+]([O-])c1cc(Cl)c(Oc2ccccc2)cc1Oc1ccccc1`, the melting point is 95 °C.

For `C[C@H](OCc1cc2cc(Cl)ccc2n1S(=O)(=O)c1ccc2ncsc2c1)C(=O)O`, the melting point stood at 82 °C.

As for `O=C1COc2cc(NC(=O)C(=O)N3CCC(Cc4ccccc4)CC3)ccc2N1`, the melting point fell in the range of 123 to 126 °C.

The compound `CNCCOc1ccc(C2=C(c3ccccc3)CCCc3cc(OC4CCCCO4)ccc32)cc1` (stereo not given) showed a melting point of 133 to 137 °C.

For the compound `CC(=O)CC(=O)Nc1ccc(C(F)(F)F)cc1`, the melting point is 144 to 145 °C.

`OC(=S)Cc1cc(Cl)ccc1Cl` displayed a melting point of 118 °C.

In the case of `CCCCn1c(SC(CC)C(N)=O)nc2c1c(=O)[nH]c(=O)n2C` (stereo not given), the melting point worked out at 253 °C.

With `O=NCNC1=Nc2ccccc2N(c2ccccc2)C(=O)C1`, the melting point lay in the range of 139 to 140 °C.

The compound `O=C(O)CN1C(=O)C(=Cc2ccc(OCc3ccccc3)c(OCc3ccccn3)c2)SC1=S` registered a melting point of 204 to 207 °C.

`CCCC1=C(C#N)C(c2cccc(C)c2[N+](=O)[O-])c2c[nH]nc2N1` (stereo not given) returned a melting point of 250 °C.

In turn, `O=C(OC[C@H]1CC(=O)[C@@H]1COC(=O)c1ccccc1)c1ccccc1` came in with a melting point of 93 to 94 °C.

`O=S(=O)(NC(=NO)Nc1ccc(Cl)cc1)c1cc(S(=O)(=O)c2ccccc2)cs1` gave a melting point of 195 °C.

The compound `COc1ccc(S(=O)(=O)Nc2cccnc2Nc2ccccc2OC)cc1` gave a melting point of 159 to 160 °C.

`COc1ccc(C(=O)CC(C#N)c2ccc3c(c2)OCO3)cc1OC` (stereo not given) came in with a melting point of 159 to 161 °C.

On to `O=C1CC(NC(=O)C2CCCN3C(=O)CCC(NC(=O)c4ccccc4)C(=O)N23)C(OCCc2ccccc2)O1` (stereo not given), for which the melting point was 101 °C.

In the case of `CC(C)(C)OC(=O)N1CCN(c2ccc(Oc3cc(Cl)ccc3[N+](=O)[O-])cc2)CC1`, the melting point fell in the range of 124 to 125 °C.

`CCCN1N=C2C(=Cc3ccc(OC)cc3)CSCC2C1c1ccc(OC)cc1` (stereo not given) came in with a melting point of 150 to 152 °C.

For `CC1CCC(C(C)C)C(OC(=O)[C@H]2C[C@@H]2C(=O)OC2CC(C)CCC2C(C)C)C1` (stereo not given in full), the melting point is 95 to 96 °C.

With `CCCn1cc(-c2ccc3nnn(Cc4ccc5ncccc5c4)c3n2)cn1`, the melting point lay in the range of 128 to 130 °C.

Take `O=C1O[C@@H](CO)[C@H]2CCc3cc(O)ccc3N12` (relative stereo): the melting point came to 250 °C.

On to `COc1ccc(C(=O)N2CCCC3=C2CCc2cc(Cl)ccc23)cc1`, for which the melting point fell in the range of 182 to 183 °C.

Consider `NCC1(CC(=O)O)CCCCCC1`, for which the melting point was found to be 180 °C.

`CS(=O)(=O)c1ccc(OCCCCl)cc1`: the melting point was in the range of 84 to 86 °C.

`OCCSc1nc2ccc(Cc3ccccc3)cc2[nH]1` showed a melting point of 108 to 109 °C.

For the compound `NNc1nnc(C(=O)C(F)(F)F)nc1-c1ccccc1`, the melting point lay within 193 to 194 °C.

Turning to `CCOCCCOc1ccc(-c2ccc3c(c2)C=C(C(=O)Nc2ccc(CN(C)C4CCOCC4)cc2)CCS3(=O)=O)cc1Cl`, the melting point lay within 182 to 183 °C.

The compound `CC(C)(C)c1cc(N)n(-c2c(Cl)cc(C(F)(F)F)cc2Cl)n1` returned a melting point of 110 to 120 °C.

Consider `Cc1nc(Cl)c(Cl)n1CCCCN1CCN(c2ncc(O)cn2)CC1`, for which the melting point is 154 to 156 °C.

The compound `NCc1ccc(CC(N)=O)cc1` showed a melting point of 138 to 140 °C.

In the case of `O=C1CC2O/C(=C/C3(C(=O)OCc4ccccc4)C=CC=CC3)CN12` (stereo not given), the melting point was in the range of 120 to 121 °C.

Consider `CC(=Cc1ccc(-n2ccnc2)cc1)[N+](=O)[O-]`, for which the melting point fell in the range of 119 to 120 °C.

In turn, `CC(=O)OC1CSC(Oc2cc(Br)cnc2F)C(OC(C)=O)C1OC(C)=O` (stereo not given) registered a melting point of 120 to 122 °C.

With `CC(C)CNC(=O)c1ccc(C2CC2c2ccc(Cl)cc2)cc1` (stereo not given), the melting point stood at 110 °C.

As for `Cc1cc(S(F)(F)(F)(F)F)ccc1C(=O)O`, the melting point was 138 to 139 °C.

With `COc1ccc(-c2cc(O)ccc2-c2ncnc(-c3ccccc3)n2)cc1`, the melting point fell in the range of 177 to 178 °C.

`CC(C)(C)OC(=O)Nc1sc(Cl)nc1Cl` displayed a melting point of 111 to 112 °C.

Compound `O=C(NC1CCC(CNc2nc3c(s2)CCOc2ccccc2-3)CC1)OCc1ccccc1` (stereo not given) yielded a melting point of 124 to 127 °C.

`O=C(NCCO)/C(=C/c1ccc(OC(F)(F)F)cc1)NC(=O)c1ccc(Oc2ccc(Cl)cc2)cc1` had a melting point of 77 to 82 °C.

On to `O=C(O)Cc1ccc(Cc2n[nH]c3c2c(=O)n(-c2ccccc2)c2ncccc32)cc1`, for which the melting point was 297 to 300 °C.

On to `Cc1cc(OS(=O)(=O)c2c(F)cccc2F)cc2c(C3CCN(C)CC3)cn(Cc3ccccc3)c12`, for which the melting point stood at 158 °C.

For the compound `CCC(=O)NC(=O)C(CC)(OC(=O)CC)C(=O)NC(=O)CC`, the melting point turned out to be 90 °C.
